Patent US9845335B2, “Sofosbuvir in crystalline form and process for its preparation” (HC-PHARMA AG, priority 2014, dated 2017)

Key:
Assay type in all cases: physicochemical
[1] = Powder properties of the crystalline form (bulk and tapped density, compressibility, Hausner ratio)
[2] = Particle size distribution (PSD)
[3] = Stability and hygroscopicity of the crystalline form; conditions: statement in words, no data
[4] = product of Example 1 (from isobutyl methyl ketone)

CC(C)OC(=O)[C@H](C)N[P@](=O)(OC[C@H]1O[C@@H](n2ccc(=O)[nH]c2=O)[C@](C)(F)[C@@H]1O)Oc1ccccc1 [Sofosbuvir Form α]
Bulk Density [1]: 0.22 g/mL | Compressibility index [1]: 24.4 | Hausner ratio [1]: 1.32 | Tapped Density [1]: 0.29 g/mL | PSD: size of the 90% of the particles ([2]; general characterisation of the form): 10 to 50 μm | PSD d(0.1) [2, 4]: 1.831 μm | PSD d(0.5) [2, 4]: 5.263 μm | PSD d(0.9) [2, 4]: 20.369 μm | Hygroscopicity [3]: not hygroscopic | Stability of the crystalline form [3]: stable
